Patent US4719235A, “Methods and compositions for treating viral infection” (Kern; Gerald N., priority 1985, dated 1988)

What was measured:
[1] = test system: Respiratory syncytial virus (RSV); assay: Inactivation of Respiratory Syncytial Virus (CPE on HeLa cells); format: cell-based
[2] = test system: HeLa; assay: Cytotoxicity in solutions free of serum, HeLa; format: cell-based, human; set-up: key to HeLa (toxicity): 0: Cells had normal morphology; 4+: >90% of cells showed CTE; conditions: 24 hours, 37° C.
Procedure: (§1) The cell lines used to evaluate cytotoxicity of docusate sodium were MA-104 derived from monkey kidneys, HeLa derived from human uterine carcinoma and primary fibroblasts from human foreskin. The cells were grown to confluency in 60×15 mm dishes. The cell monolayers were washed free of growth medium and 5 ml of serum-less growth medium containing docusate sodium at various concentrations was added. The curtures were incubated 24 hours at 37° C. and the cells then examined microscopically for cytotoxic effects (CTE). Controls were done in the same manner except that they were not exposed to docusate sodium.

[3] = Cytotoxicity in solutions free of serum, HeLa; format: cell-based, human; set-up: key to HeLa (toxicity): 0: Cells had normal morphology; 4+: >90% of cells showed CTE; conditions: human, hela cells, 0.2 mg/ml, 37° C., read-out: HeLa (toxicity)
Procedure: as §1

[4] = Cytotoxicity in solutions free of serum, selected cell lines (overall conclusion); format: cell-based; conditions: serum-free medium, read-out: concentration toxic to the cells
Procedure: as §1

[5] = test system: MA-104; assay: Cytotoxicity in solutions containing serum, MA-104; format: cell-based, monkey; set-up: key: 0: Cells have normal morphology; 4+: >90% of cells showed CTE.; ±c: less than 10% of cells showed CTE; conditions: 2% fetal calf serum, 24 hours, 37° C.
Procedure: (§2) The cells were grown to confluency in 60×15 mm dishes. The cell monolayers were washed free of growth medium and 5 ml of serum-less growth medium containing docusate sodium at various concentrations was added. The curtures were incubated 24 hours at 37° C. and the cells then examined microscopically for cytotoxic effects (CTE). Controls were done in the same manner except that they were not exposed to docusate sodium.
(§3) The same procedure that was used for Example 17 was used for this Example except that the medium used for growing the cells contained 2% by volume fetal calf serum.

[6] = test system: Rotavirus; assay: microbe, parasite or virus in culture; format: cell-based; conditions: MA104, 0.25 h, pretreatment 15 minutes, read-out: % decrease in pfu
[7] = test system: Adenovirus; assay: Pretreatment of HeLa cells prior to exposure to Adenovirus; format: cell-based; conditions: 0.125 mg/ml in 10% fetal calf serum MEM
Procedure: HeLa cells were washed free of growth medium and the cells were exposed to 0.125 mg/ml docusate sodium in 10% fetal calf serum MEM for 15 minutes. The docusate sodium solution was poured off, the cells rinsed with phosphate buffered saline and then exposed to appropriately diluted Adenovirus. A control solution prepared as above except for exposure to docusate sodium was also provided. After one hour at 37° C., the cells were overlayed with agar and incubated for 3 days at 37° C. to allow plaques to develop.

[8] = test system: herpes virus; assay: Recovery of herpes virus from a contaminated surface (glass slides; plaques on MA-104 cells); format: cell-based
[9] = test system: selected cell lines (MA-104, HeLa, Foreskin)
[10] = test system: Coxsackievirus B-5; assay: Pretreatment of MA-104 cells prior to exposure to Coxsackievirus B-5; format: cell-based
[11] = test system: primary fibroblasts from human foreskin; assay: Cytotoxicity in solutions containing serum, foreskin fibroblasts; format: cell-based; set-up: key to Foreskin (Cytotoxic effect): 0: Cells have normal morphology; 4+: >90% of cells showed CTE.; ±c: less than 10% of cells showed CTE; conditions: 0.01 mg/ml, 2% fetal calf serum, 24 hours, 37° C.
Procedure: as §2, §3

[12] = as above; format: cell-based, human; set-up: key to Foreskin (Cytotoxic effect): 0: Cells have normal morphology; 4+: >90% of cells showed CTE.; ±c: less than 10% of cells showed CTE; conditions: human, foreskin fibroblasts, 2% fetal calf serum, 37° C., read-out: Foreskin (Cytotoxic effect)
Procedure: as §2, §3

## CCCCC(CC)COC(=O)CC(C(=O)OCC(CC)CCCC)S(=O)(=O)O (stereo not shown) [docusate sodium, 1,4-bis(2-ethylhexyl)sodium sulfosuccinate]
[1]
  Presence of CPE: -
  inactivation of RSV (conclusion): RSV was inactivated
[2]; 0.01 mg/ml
  HeLa (toxicity): 0
[2]; 0.05 mg/ml
  HeLa (toxicity): 4+ (>90% of cells showed CTE.)
[2]; 0.1 mg/ml
  HeLa (toxicity): 4+ (>90% of cells showed CTE.)
[3]
  cytotoxicity at 24 h: > 90%
[4]
  MCC at 24 h: 10 to 50 µg/mL
[5]; 0.01 mg/ml
  MA-104 (Cytotoxic effect): 0
[5]; 0.02 mg/ml
  MA-104 (Cytotoxic effect): 0
[5]; 0.03 mg/ml
  MA-104 (Cytotoxic effect): 0
[5]; 0.04 mg/ml
  MA-104 (Cytotoxic effect): 0
[6]; 0.04 mg/ml
  inhibition at 40 µg/mL: 10%
[6]; 0.05 mg/ml
  inhibition at 50 µg/mL: 70%
[7]; pretreatment 15 minutes (control 180,000)
  plaque forming units/ml: 175,000 pfu/ml
[7]; unidentified adenovirus, HeLa, 0.25 h, pretreatment 15 minutes, read-out: % decrease in pfu
  inhibition at 125 µg/mL: 3%
[8]; 0.4% in phosphate buffered saline (control 41,250; control smear 13,500)
  plaque forming units: 0 plaque forming units
[8]; smears scrubbed off with 0.4% solution
  recovery of viruses (conclusion): no viruses were recovered
[9]
  effect of serum on cytotoxicity (conclusion): presence of serum reduced the cytotoxicity
  relative sensitivity of cell lines (conclusion): MA-104 cells were less sensitive to docusate sodium than were HeLa and foreskin fibroblast cells
[10]; 0.02 mg/ml, pretreatment
  effect on plaque formation (infectivity) (conclusion): no effect on plaque formation (infectivity)
[10]; .02 mg/ml, pretreatment 15 minutes (control 1,000,000)
  pfu/ml: 1,800,000 pfu/ml
[11]
  Foreskin (Cytotoxic effect): 0
[12]; 0.02 mg/ml
  cytotoxicity at 24 h: < 10%
[12]; 0.03 mg/ml
  cytotoxicity at 24 h: > 90%
[12]; 0.04 mg/ml
  cytotoxicity at 24 h: > 90%
